Assay results from US20050208490A1, “Ligand binding pocket peptide fragment of estrogen-related receptor 3 (err3) and uses thereof” (priority 2002, published 2005).
Numbering of substitutions follows the chain as printed. “Also recorded” adds a separate entry of the source. Like-named read-outs stand apart in the source and are kept apart here.

Columns and labels:
[1] = molecular target: T1, ERR1 mutant F328 to alanine (Homo sapiens, UniProt P11474, F232A); settings: Chen S et al., 2001; cited from earlier work
T1 sequence (P11474 1-423 F232A): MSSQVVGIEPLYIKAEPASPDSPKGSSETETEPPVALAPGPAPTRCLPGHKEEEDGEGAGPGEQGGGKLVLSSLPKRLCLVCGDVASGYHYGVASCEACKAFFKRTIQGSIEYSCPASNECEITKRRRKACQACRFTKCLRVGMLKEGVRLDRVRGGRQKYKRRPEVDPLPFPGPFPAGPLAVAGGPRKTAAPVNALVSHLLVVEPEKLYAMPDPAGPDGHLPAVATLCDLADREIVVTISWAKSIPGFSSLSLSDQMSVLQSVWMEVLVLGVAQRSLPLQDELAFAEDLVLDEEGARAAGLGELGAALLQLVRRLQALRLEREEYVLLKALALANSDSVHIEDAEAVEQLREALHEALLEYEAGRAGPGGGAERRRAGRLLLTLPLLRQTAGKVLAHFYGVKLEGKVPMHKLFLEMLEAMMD

ERRα = molecular target: T2, ERRα (Homo sapiens, UniProt P11474); settings: micromolar concentrations; Yang and Chen (1999); cited from earlier work
T2 sequence (P11474 1-423): T1 sequence (P11474 1-423 F232A) with A232F

full length ERR3 = full length ERR3 (Homo sapiens, UniProt P62508); assay: Transient transfection with ERE(2×)-TK-LUC reporter, full length ERR3; assay type: cell-based; settings: in the presence of 4-OHT
Protocol: (§1) COS-1 and BHK cells were cultured in DMEM supplemented with 5% FCS, penicillin, streptomycin, and glutamine. Neuro2A cells were cultured in EMEM supplemented with 10% FCS, penicillin, streptomycin, glutamine, and non-essential amino acids. Transient transfection assays were carried out in 24-well plates (0.5×10^5 cells per well for COS-1 and Neuro2A cells, 0.25×10^5 cells per well for BHK cells) using the standard calcium phosphate coprecipitation technique as described in Greiner et al. (Greiner et al., 1996). Cells were transfected with 250 ng of Gal4(5×)-TATA-LUC, Gal4(3×)-TK-LUC, or ERE(2×)-TK-LUC reporter plasmid and 50 ng per well of pCMX-Gal4-ERR3 or pCMX-ERR3 expression plasmid. The empty plasmids pCMX-Gal4 and pCMX served as control. […] Luciferase activity was assayed as described in Greiner et al. (1996). All experiments were repeated at least three times.

[2] = molecular target: T3, His-tagged ERR3 LBD / GST-tagged SRC-1 RID complex (Homo sapiens, UniProt P62508); assay: In vitro protein-protein interaction assay, wt ERR3 LBD with SRC-1 RID (native gel); assay type: biochemical; settings: 10^−4M ligand
T3 construct: cDNA fragments encoding wt or mutant ERR3 LBDs (residues 229 to 458, human and murine receptor are identical) were generated by PCR; made in house; host or cells: E. coli BL21 (DE3)
T3 sequence (P62508 229-458): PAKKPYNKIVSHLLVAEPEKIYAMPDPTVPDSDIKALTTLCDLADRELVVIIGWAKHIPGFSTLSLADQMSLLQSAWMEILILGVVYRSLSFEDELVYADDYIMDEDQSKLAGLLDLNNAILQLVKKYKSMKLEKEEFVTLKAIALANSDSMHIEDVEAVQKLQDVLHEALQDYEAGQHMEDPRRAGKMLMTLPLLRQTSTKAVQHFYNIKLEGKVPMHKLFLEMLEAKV
Protocol: (§2) The His-tagged wt or mutant ERR3 LBDs, the GST-tagged SRC-1 RID, and GST were expressed in E. coli BL21 (DE3) and partially purified by affinity chromatography using TALON (Clontech) or Glutathione Sepharose 4B (Pharmacia), respectively. […] After purification the proteins were dialyzed in assay buffer (20 mM Tris.HCl pH 8.0, 200 mM NaCl), and concentrated. For the protein-protein interaction assays […] (about 70 pmol) of His-tagged wt or mutant ERR3 LBD were mixed with […] (about 100 pmol) of GST-tagged SRC-1 RID or […] of GST and incubated on ice for 10 mins. […] Protein complexes were resolved on native polyacrylamide gradient gels (8%-25%) using the Phast System (Pharmacia).
(§3) In vitro interaction assays with the RID (amino acids 617-764) of the coactivator SRC-1 has first been performed. Hexahistidine (His)-tagged ERR3, LBD and GST-tagged SRC-1 RID were partially purified by affinity chromatography, the proteins were mixed, and complex formation was monitored on native polyacrylamide gels. […] Complexes were separated on native polyacrylamide gradient gels.

[3] = system: Gal4-ERR3 mutants (A272F, A272L, F435L, L345I-F435L-F450L); assay: Transient transfection luciferase reporter assay, mutant Gal4-ERR3 fusion proteins in COS-1 cells; assay type: cell-based, human; settings: 10^−6M 4-OHT
Protocol: as §1
(§4) Finally, it has been asked whether ERR3 could activate transcription independently of a putative endogenous ligand. The wt and mutant ERR3 LBDs were fused to the DNA-binding domain of Gal4, and Gal4-ERR3 fusion proteins were tested for their potential to activate transcription in transient transfection assays using synthetic reporters in eukaryotic cell lines. […]

ERR3 [4] = molecular target: T4, ERR3 (Homo sapiens, UniProt P62508); settings: Coward et al. (2001); cited from earlier work
T4 sequence (P62508 1-458): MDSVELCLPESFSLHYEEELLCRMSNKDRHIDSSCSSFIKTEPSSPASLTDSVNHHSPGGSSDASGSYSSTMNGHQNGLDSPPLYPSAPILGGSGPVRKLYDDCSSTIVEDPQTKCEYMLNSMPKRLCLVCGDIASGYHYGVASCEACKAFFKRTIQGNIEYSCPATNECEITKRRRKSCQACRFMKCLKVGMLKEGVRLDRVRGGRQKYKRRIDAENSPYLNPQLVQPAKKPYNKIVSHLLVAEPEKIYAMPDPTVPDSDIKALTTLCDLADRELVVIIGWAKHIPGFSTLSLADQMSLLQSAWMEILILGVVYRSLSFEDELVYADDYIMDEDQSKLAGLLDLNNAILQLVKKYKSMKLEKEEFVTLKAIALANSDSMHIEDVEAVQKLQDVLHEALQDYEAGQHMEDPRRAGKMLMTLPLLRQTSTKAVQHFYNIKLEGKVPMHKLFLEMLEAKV

ERR3 [5] = molecular target: T4, ERR3; settings: Coward et al. (2001); cited from earlier work; remark: listed apart in the source
[6] = system: mutant ERR3 LBDs (A272F, A272L, F435L, L345I, L345I-F435L, L345I-F435L-F450L) / GST-SRC-1 RID complex; assay: In vitro protein-protein interaction assay, mutant ERR3 LBDs with SRC-1 RID (native gel); assay type: biochemical, human; settings: 10^−4M 4-OHT
Protocol: as §2, §3
In addition, the ligand-binding pocket of ERR3 has been enlarged by either mutating F435 to leucine or by introducing a triple point mutation (L345I-F435L-F450L) which creates an “ERα-like” ligand-binding pocket.

ERR1, ERR2 and ERR3 = settings: Coward et al., 2001 / reported, cited from earlier work
Gal4-ERR3 = molecular target: T5, Gal4-ERR3 (Homo sapiens, UniProt P62508); assay: Transient transfection luciferase reporter assay, Gal4-ERR3 (wt LBD) in COS-1 cells; assay type: cell-based
T5 construct: cDNA fragments encoding wt or mutant ERR3 LBDs (residues 229 to 458, human and murine receptor are identical) were generated by PCR; expressed in transfected cells; host or cells: COS-1 cells (also Neuro2A and BHK)
T5 sequence (P62508 229-458): T3 sequence (P62508 229-458)
Protocol: as §1, §4

| Compound | activation of ERR1 F328A mutant [1] | effect on ERRα basal activity (ERRα) | active repression of transcription of the TK promoter by full length ERR3 (full length ERR3) | conformational change of the ERR3 LBD (migration on native gels) [2] | disruption of the ERR3 LBD/GST-SRC-1 RID complex ([2]; native polyacrylamide gradient gel) | transcriptional activity of Gal4-ERR3 mutants ([3]; Gal4-ERR3(A272F) or Gal4-ERR3(A272L)) | transcriptional activity of Gal4-ERR3 mutants ([3]; Gal4-ERR3(F435L) and Gal4-ERR3(L345I-F435L-F450L)) | affinity of binding to ERR3 (ERR3 [4]) | effect on ERR3 transcriptional activity (ERR3 [5]) | disruption of the mutant ERR3 LBD/GST-SRC-1 RID complex ([6]; mutant F435L) | disruption of the mutant ERR3 LBD/GST-SRC-1 RID complex ([6]; mutants A272F or A272L) | antagonist action on mutant ERR3 LBD in vitro ([6]; mutants F435L, L345I-F435L, L345I-F435L-F450L) | binding to ERR isotypes (ERR1, ERR2 and ERR3; listed as 40HT) | binding to ERR isotypes (ERR1, ERR2 and ERR3) | repression of Gal4-ERR3 constitutive activity below basal levels of the TK promoter (Gal4-ERR3; Gal4(3×)-TK-LUC reporter) | transcriptional activity of Gal4-ERR3 (Gal4-ERR3; Gal4(5×)-TATA-LUC reporter, 10^−6M 4-OHT) |
| --- | --- | --- | --- | --- | --- | --- | --- | --- | --- | --- | --- | --- | --- | --- | --- | --- |
| CC1(C)C(C(Cl)Cl)C2(Cl)C(Cl)C(Cl)C1(Cl)C2(Cl)Cl (centres unmarked) [toxaphene] | can be activated by toxaphene | decrease ERRα basal activity | – | – | – | – | – | – | – | – | – | – | – | – | – | – |
| 4-hydroxytamoxifen [4-OHT] | – | – | does not actively repress transcription of the TK promoter | significant conformational change | specifically disrupted | but not of Gal4-ERR3(A272F) or Gal4-ERR3(A272L) | antagonizes the transcriptional activity | submicromolar | repressed transactivation; also recorded: selectively block the transcriptional activity of ERR3 | still disrupted | no effect is observed | still acts as an antagonist | binds both ERR2 and ERR3 | does not bind ERR1; also recorded: binds to ERR2 and ERR3 but not to ERR1 | neither 4-OHT nor DES repress the constitutive activity of Gal4-ERR3 below basal levels | blocked efficiently |
| ClC1=C(Cl)C2(Cl)C3C(Cl)C(Cl)CC3C1(Cl)C2(Cl)Cl (centres unmarked) [chlordane] | – | decrease ERRα basal activity | – | – | – | – | – | – | – | – | – | – | – | – | – | – |
